Laboratory results from patent publication US20250228891A1, “COMBINATIONS CONTAINING OXYLANTHANUM CARBONATE FOR TREATING HYPERPHOSPHATEMIA” (UNICYCIVE THERAPEUTICS, INC., priority 2024, published 2025).

Assays:
Sprague Dawley rats = assay: Urinary phosphate excretion in rats fed a high phosphorus diet (OLC+Tenapanor Combo Study, Example 1); assay type: in vivo, rat; conditions: Days 9 to 11
Procedure: FIG. 1. Represents the Study Design of the OLC+Tenapanor Combo Study described in Example 1. The study consisted of acclimatization, randomization, in vivo study period, and termination. Animals were acclimated from Day-7 to Day-4. On study Day-1, animals were randomized into eight groups: one vehicle; one tenapanor (0.15 mg/kg); three oxylanthanum carbonate (OLC) (0.75%, 1.5%, and 3%); and three combination treatment with OLC and tenapanor (OLC 0.75%, 1.5%, and 3%+tenapanor 0.15 mg/kg). On study Day 1, animals were switched to high phosphorus diets. Animals were euthanized on Day 11 two hours post last dose. Legend: 1 Body weight and food intake were measured daily from study Day-3 until termination. 2 During the in vivo study period (Days 1 to 11), vehicle and tenapanor were dosed orally twice/day whereas OLC was incorporated into the diets. 3 Urine samples were collected on Days 9, 10, and 11 for phosphate measurements and blood samples were collected for serum phosphate and sodium measurements on day 11 after the final urine sampling. Sixty-four male Sprague Dawley rats of 9 weeks old (11 weeks by the end of the study) were fed standard chow one week prior to study start. On study day-1, animals were randomized into 8 study groups (n=8): 1) vehicle, 2) tenapanor 0.15 mg/kg, 3) Vehicle+OLC 0.75%, 4) Vehicle+OLC 1.5%, 5) Vehicle+OLC 3%, 6) tenapanor 0.15 mg/kg+OLC 0.75%, 7) tenapanor 0.15 mg/kg+OLC 1.5%, and 8) tenapanor 0.15 mg/kg+OLC 3%. Vehicle and tenapanor were dosed PO twice/day whereas OLC was incorporated into the diets. On study Day 1, all animals were switched to high phosphorus diets consisting of chow spiked with 0.4% inorganic phosphorus [(1:1 sodium:potassium salt-wt./wt.), 1.1% total phosphorus content] for the rest of the study. Body weight and food intake were measured daily from study Day-3 until termination. 24-hour urine samples were collected using metabolic cages on day 9, 10, and 11 for urinary P measurements. Mean urinary phosphate excretion for each animal from Days 9 to 11 were averaged by treatment group. While we examined effects separately in each OLC dose group, our primary analyses compared pooled results in the three OLC dose groups combined. We compared pooled results using one-way ANOVA followed by Games-Howell test, and individual groups with vehicle using one-way ANOVA followed by Dunnett's multiple comparison test. A threshold of p<0.05 was used to determine significant differences between groups. Statistical Package for the Social Sciences (SPSS) was used for all statistical analyses. The Bliss model of independence was employed to determine if the combination of OLC and tenapanor was independent, synergistic, or antagonistic. (Zhao W, et al. J Biomol Screen June 2014; 19 (5): 817-821). The Bliss model compares the predicted combination response, calculated using the complete additivity of probability theory based on the observed effect of each individual agent administered alone, with the observed effect of combination treatment. The mean percentage reduction in urinary phosphate excretion relative to vehicle by treatment group was calculated by averaging urinary phosphate excretion for each animal from Days 9 to 11. Paired t-tests were conducted to assess the statistical significance between observed and predicted results. 2-tailed p-values<0.05 are considered to be statistically significant.

[1] = Body weight and food intake in the OLC+Tenapanor Combo Study (Example 1); conditions: rat, in vivo
Procedure: FIG. 1. Represents the Study Design of the OLC+Tenapanor Combo Study described in Example 1. The study consisted of acclimatization, randomization, in vivo study period, and termination. Animals were acclimated from Day-7 to Day-4. On study Day-1, animals were randomized into eight groups: one vehicle; one tenapanor (0.15 mg/kg); three oxylanthanum carbonate (OLC) (0.75%, 1.5%, and 3%); and three combination treatment with OLC and tenapanor (OLC 0.75%, 1.5%, and 3%+tenapanor 0.15 mg/kg). On study Day 1, animals were switched to high phosphorus diets. Animals were euthanized on Day 11 two hours post last dose. Legend: 1 Body weight and food intake were measured daily from study Day-3 until termination. 2 During the in vivo study period (Days 1 to 11), vehicle and tenapanor were dosed orally twice/day whereas OLC was incorporated into the diets. 3 Urine samples were collected on Days 9, 10, and 11 for phosphate measurements and blood samples were collected for serum phosphate and sodium measurements on day 11 after the final urine sampling. Sixty-four male Sprague Dawley rats of 9 weeks old (11 weeks by the end of the study) were fed standard chow one week prior to study start. […] Body weight and food intake were measured daily from study Day-3 until termination. […] The mean body weight (FIG. 2A) and food intake (FIG. 2B) were measured from Day 1 to 11.

[2] = clinical trials; % of patients; cited from earlier work
[3] = Games-Howell post-hoc, OLC = average of 0.75%, 1.5%, 3% in chow, tenapanor 0.15 mg/kg/po/bid

CN1Cc2c(Cl)cc(Cl)cc2[C@H](c2cccc(S(=O)(=O)NCCOCCOCCNC(=O)NCCCCNC(=O)NCCOCCOCCNS(=O)(=O)c3cccc([C@@H]4CN(C)Cc5c(Cl)cc(Cl)cc54)c3)c2)C1.Cl.Cl [Tenapanor, 12,15-Dioxa-2,7,9-triazaheptadecanamide, 17-[[[3-[(4S)-6,8-dichloro-1,2,3,4-tetrahydro-2-methyl-4-isoquinolinyl]phenyl]sulphonyl]amino]-N-[2-[2-[2-[[[3-[(4S)-6,8-dichloro-1,2,3,4-tetrahydro-2-methyl-4-isoquinolinyl]phenyl]sulphonyl]amino]ethoxy]ethoxy]ethyl]-8-oxo-, hydrochloride (1:2)]
mean urinary phosphate excretion lower compared to the vehicle group (Sprague Dawley rats; tenapanor 0.15 mg/kg PO bid, OLC pooled across 0.75, 1.5 and 3% in chow, n=8 per treatment group): 8.5 mg/day | Mean Difference (A − B) in mean urinary phosphate excretion, Treatment Group (A) = Vehicle, (B) = labelled treatment (Sprague Dawley rats; [3]): 8.510 mg/day | Mean Difference (A − B) in mean urinary phosphate excretion, Treatment Group (A) = labelled treatment, (B) = OLC (Sprague Dawley rats; [3]): 3.583 mg/day | Mean Difference (A − B) in mean urinary phosphate excretion, Treatment Group (A) = labelled treatment, (B) = OLC + Tenapanor (Sprague Dawley rats; [3]): 19.543 mg/day | Mean Difference (A − B) in mean urinary phosphate excretion, Treatment Group (A) = labelled treatment, (B) = Vehicle (Sprague Dawley rats; [3]): -8.510 mg/day | food intake compared with vehicle [1]: not significantly affected | diarrhea observed in patients taking tenapanor [2]: 53%
